Assay results: PubChem BioAssay (NCI)
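Assay format: 96-well plates, 48-hour exposure. TGI is the concentration that stops growth completely.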

What was measured:
Test in all cases: NCI anticancer screen, dose series, 48 h
NCI-H522 lung = system: NCI-H522 lung
CCRF-CEM leukemia = system: CCRF-CEM leukemia
DU-145 prostate = system: DU-145 prostate
TK-10 renal = system: TK-10 renal
UO-31 renal = system: UO-31 renal
HS 578T breast = system: HS 578T breast
K-562 leukemia = system: K-562 leukemia
SNB-75 CNS = system: SNB-75 CNS
NCI-H23 lung = system: NCI-H23 lung
OVCAR-8 ovarian = system: OVCAR-8 ovarian
SF-539 CNS = system: SF-539 CNS
NCI-H460 lung = system: NCI-H460 lung
RPMI-8226 leukemia = system: RPMI-8226 leukemia
MCF7 breast = system: MCF7 breast
NCI/ADR-RES ovarian = system: NCI/ADR-RES ovarian
SN12C renal = system: SN12C renal
MOLT-4 leukemia = system: MOLT-4 leukemia
T-47D breast = system: T-47D breast
OVCAR-5 ovarian = system: OVCAR-5 ovarian
SF-268 CNS = system: SF-268 CNS
RXF 393 renal = system: RXF 393 renal
ACHN renal = system: ACHN renal
MDA-N = system: MDA-N
HL-60(TB) leukemia = system: HL-60(TB) leukemia
U251 CNS = system: U251 CNS
HT29 colon = system: HT29 colon
COLO 205 colon = system: COLO 205 colon
A549 NSCLC = system: A549 NSCLC
HCC-2998 colon = system: HCC-2998 colon
BT-549 breast = system: BT-549 breast
SW-620 colon = system: SW-620 colon
SK-MEL-28 melanoma = system: SK-MEL-28 melanoma
IGROV1 ovarian = system: IGROV1 ovarian
OVCAR-4 ovarian = system: OVCAR-4 ovarian
MDA-MB-435 = system: MDA-MB-435
SF-295 CNS = system: SF-295 CNS
HCT-116 colon = system: HCT-116 colon
KM12 colon = system: KM12 colon
SK-MEL-2 melanoma = system: SK-MEL-2 melanoma
HCT-15 colon = system: HCT-15 colon
UACC-257 melanoma = system: UACC-257 melanoma
UACC-62 melanoma = system: UACC-62 melanoma
HOP-92 NSCLC = system: HOP-92 NSCLC
SK-OV-3 ovarian = system: SK-OV-3 ovarian
CAKI-1 renal = system: CAKI-1 renal
EKVX NSCLC = system: EKVX NSCLC
LOX IMVI melanoma = system: LOX IMVI melanoma
SNB-19 CNS = system: SNB-19 CNS
MDA-MB-231 breast = system: MDA-MB-231 breast
PC-3 prostate = system: PC-3 prostate
M14 melanoma = system: M14 melanoma
SK-MEL-5 melanoma = system: SK-MEL-5 melanoma
OVCAR-3 ovarian = system: OVCAR-3 ovarian
SR leukemia = system: SR leukemia
A498 renal = system: A498 renal
786-0 renal = system: 786-0 renal
NCI-H226 lung = system: NCI-H226 lung
HOP-62 NSCLC = system: HOP-62 NSCLC
MALME-3M melanoma = system: MALME-3M melanoma

CCC(=O)NC(Nc1cccc(F)c1)(C(F)(F)F)C(F)(F)F
TGI (NCI-H522 lung): > 100 µM
TGI (CCRF-CEM leukemia): > 100 µM
TGI (DU-145 prostate): > 100 µM
TGI (TK-10 renal): > 100 µM
TGI (UO-31 renal): > 100 µM
TGI (HS 578T breast): > 100 µM
TGI (K-562 leukemia): > 100 µM
TGI (SNB-75 CNS): > 100 µM
TGI (NCI-H23 lung): > 100 µM
TGI (OVCAR-8 ovarian): > 100 µM
TGI (SF-539 CNS): > 100 µM
TGI (NCI-H460 lung): > 100 µM
TGI (RPMI-8226 leukemia): > 100 µM
TGI (MCF7 breast): > 100 µM
TGI (NCI/ADR-RES ovarian): > 100 µM
TGI (SN12C renal): > 100 µM
TGI (MOLT-4 leukemia): > 100 µM
TGI (T-47D breast): > 100 µM
TGI (OVCAR-5 ovarian): > 100 µM
TGI (SF-268 CNS): > 100 µM
TGI (RXF 393 renal): > 100 µM
TGI (ACHN renal): > 100 µM
TGI (MDA-N): > 100 µM
TGI (HL-60(TB) leukemia): > 100 µM
TGI (U251 CNS): > 100 µM
TGI (HT29 colon): > 100 µM
TGI (COLO 205 colon): > 100 µM
TGI (A549 NSCLC): > 100 µM
TGI (HCC-2998 colon): > 100 µM
TGI (BT-549 breast): > 100 µM
TGI (SW-620 colon): > 100 µM
TGI (SK-MEL-28 melanoma): > 100 µM
TGI (IGROV1 ovarian): > 100 µM
TGI (OVCAR-4 ovarian): > 100 µM
TGI (MDA-MB-435): > 100 µM
TGI (SF-295 CNS): > 100 µM
TGI (HCT-116 colon): > 100 µM
TGI (KM12 colon): > 100 µM
TGI (SK-MEL-2 melanoma): > 100 µM
TGI (HCT-15 colon): > 100 µM
TGI (UACC-257 melanoma): > 100 µM
TGI (UACC-62 melanoma): > 100 µM
TGI (HOP-92 NSCLC): > 100 µM
TGI (SK-OV-3 ovarian): > 100 µM
TGI (CAKI-1 renal): 93.9 µM
TGI (EKVX NSCLC): > 100 µM
TGI (LOX IMVI melanoma): > 100 µM
TGI (SNB-19 CNS): > 100 µM
TGI (MDA-MB-231 breast): > 100 µM
TGI (PC-3 prostate): > 100 µM
TGI (M14 melanoma): > 100 µM
TGI (SK-MEL-5 melanoma): > 100 µM
TGI (OVCAR-3 ovarian): > 100 µM
TGI (SR leukemia): > 100 µM

Cc1cc(=O)[nH]c2cc(NC(=O)C(CCCN=C(N)N)NC(=O)OCc3ccccc3)ccc12 (stereo unspecified)
TGI (NCI-H522 lung): > 100 µM
TGI (CCRF-CEM leukemia): > 100 µM
TGI (DU-145 prostate): > 100 µM
TGI (TK-10 renal): > 100 µM
TGI (A498 renal): > 100 µM
TGI (UO-31 renal): > 100 µM
TGI (HS 578T breast): > 100 µM
TGI (K-562 leukemia): > 100 µM
TGI (SNB-75 CNS): > 100 µM
TGI (NCI-H23 lung): > 100 µM
TGI (OVCAR-8 ovarian): > 100 µM
TGI (SF-539 CNS): > 100 µM
TGI (NCI-H460 lung): > 100 µM
TGI (786-0 renal): > 100 µM
TGI (MCF7 breast): > 100 µM
TGI (NCI-H226 lung): > 100 µM
TGI (NCI/ADR-RES ovarian): > 100 µM
TGI (SN12C renal): > 100 µM
TGI (MOLT-4 leukemia): > 100 µM
TGI (T-47D breast): > 100 µM
TGI (OVCAR-5 ovarian): > 100 µM
TGI (SF-268 CNS): > 100 µM
TGI (ACHN renal): > 100 µM
TGI (MDA-N): > 100 µM
TGI (HL-60(TB) leukemia): > 100 µM
TGI (U251 CNS): > 100 µM
TGI (HT29 colon): > 100 µM
TGI (COLO 205 colon): > 100 µM
TGI (A549 NSCLC): > 100 µM
TGI (HCC-2998 colon): > 100 µM
TGI (BT-549 breast): > 100 µM
TGI (SW-620 colon): > 100 µM
TGI (SK-MEL-28 melanoma): > 100 µM
TGI (IGROV1 ovarian): > 100 µM
TGI (OVCAR-4 ovarian): > 100 µM
TGI (MDA-MB-435): > 100 µM
TGI (SF-295 CNS): > 100 µM
TGI (HCT-116 colon): > 100 µM
TGI (KM12 colon): > 100 µM
TGI (SK-MEL-2 melanoma): > 100 µM
TGI (HCT-15 colon): > 100 µM
TGI (HOP-62 NSCLC): > 100 µM
TGI (UACC-257 melanoma): > 100 µM
TGI (UACC-62 melanoma): > 100 µM
TGI (HOP-92 NSCLC): > 100 µM
TGI (SK-OV-3 ovarian): 25.6 µM
TGI (CAKI-1 renal): > 100 µM
TGI (EKVX NSCLC): > 100 µM
TGI (LOX IMVI melanoma): > 100 µM
TGI (SNB-19 CNS): > 100 µM
TGI (MDA-MB-231 breast): > 100 µM
TGI (PC-3 prostate): > 100 µM
TGI (M14 melanoma): > 100 µM
TGI (SK-MEL-5 melanoma): > 100 µM
TGI (MALME-3M melanoma): > 100 µM
TGI (OVCAR-3 ovarian): > 100 µM
TGI (SR leukemia): > 100 µM
